Experiments:
[1] = test system: 2-phenyl-1,4-benzoquinone-induced writhing in mice; assay: 2-phenyl-1,4-benzoquinone-induced writhing test in mice (analgesia); format: in vivo; conditions: subcutaneous
From the text: Compounds of the present invention are useful as analgesic agents due to their ability to alleviate pain in mammals. […] Exptl. Biol. Med. 95,729 (1957)].

[2] = biological target: T1, nitrendipine binding (ventricle membranes) (Rattus norvegicus, UniProt P22002); assay: nitrendipine binding assay (calcium ion antagonism), [3H]-nitrendipine, rat heart ventricle membranes; set-up: species or system Male Wistar rats; conditions: 1 h, pH 7.4, 25° C., one hour; for Increase in [3H]-nitrendipine binding (%) at 20 µM: concentration 2.0 (moles) × 10^-5
T1 construct: These resuspension and recentrifugation steps are repeated twice more to wash the ventricle membranes; from tissue; host or cells: heart ventricle membranes of male Wistar rats
T1 sequence (P22002 whole entry, other chains not shown): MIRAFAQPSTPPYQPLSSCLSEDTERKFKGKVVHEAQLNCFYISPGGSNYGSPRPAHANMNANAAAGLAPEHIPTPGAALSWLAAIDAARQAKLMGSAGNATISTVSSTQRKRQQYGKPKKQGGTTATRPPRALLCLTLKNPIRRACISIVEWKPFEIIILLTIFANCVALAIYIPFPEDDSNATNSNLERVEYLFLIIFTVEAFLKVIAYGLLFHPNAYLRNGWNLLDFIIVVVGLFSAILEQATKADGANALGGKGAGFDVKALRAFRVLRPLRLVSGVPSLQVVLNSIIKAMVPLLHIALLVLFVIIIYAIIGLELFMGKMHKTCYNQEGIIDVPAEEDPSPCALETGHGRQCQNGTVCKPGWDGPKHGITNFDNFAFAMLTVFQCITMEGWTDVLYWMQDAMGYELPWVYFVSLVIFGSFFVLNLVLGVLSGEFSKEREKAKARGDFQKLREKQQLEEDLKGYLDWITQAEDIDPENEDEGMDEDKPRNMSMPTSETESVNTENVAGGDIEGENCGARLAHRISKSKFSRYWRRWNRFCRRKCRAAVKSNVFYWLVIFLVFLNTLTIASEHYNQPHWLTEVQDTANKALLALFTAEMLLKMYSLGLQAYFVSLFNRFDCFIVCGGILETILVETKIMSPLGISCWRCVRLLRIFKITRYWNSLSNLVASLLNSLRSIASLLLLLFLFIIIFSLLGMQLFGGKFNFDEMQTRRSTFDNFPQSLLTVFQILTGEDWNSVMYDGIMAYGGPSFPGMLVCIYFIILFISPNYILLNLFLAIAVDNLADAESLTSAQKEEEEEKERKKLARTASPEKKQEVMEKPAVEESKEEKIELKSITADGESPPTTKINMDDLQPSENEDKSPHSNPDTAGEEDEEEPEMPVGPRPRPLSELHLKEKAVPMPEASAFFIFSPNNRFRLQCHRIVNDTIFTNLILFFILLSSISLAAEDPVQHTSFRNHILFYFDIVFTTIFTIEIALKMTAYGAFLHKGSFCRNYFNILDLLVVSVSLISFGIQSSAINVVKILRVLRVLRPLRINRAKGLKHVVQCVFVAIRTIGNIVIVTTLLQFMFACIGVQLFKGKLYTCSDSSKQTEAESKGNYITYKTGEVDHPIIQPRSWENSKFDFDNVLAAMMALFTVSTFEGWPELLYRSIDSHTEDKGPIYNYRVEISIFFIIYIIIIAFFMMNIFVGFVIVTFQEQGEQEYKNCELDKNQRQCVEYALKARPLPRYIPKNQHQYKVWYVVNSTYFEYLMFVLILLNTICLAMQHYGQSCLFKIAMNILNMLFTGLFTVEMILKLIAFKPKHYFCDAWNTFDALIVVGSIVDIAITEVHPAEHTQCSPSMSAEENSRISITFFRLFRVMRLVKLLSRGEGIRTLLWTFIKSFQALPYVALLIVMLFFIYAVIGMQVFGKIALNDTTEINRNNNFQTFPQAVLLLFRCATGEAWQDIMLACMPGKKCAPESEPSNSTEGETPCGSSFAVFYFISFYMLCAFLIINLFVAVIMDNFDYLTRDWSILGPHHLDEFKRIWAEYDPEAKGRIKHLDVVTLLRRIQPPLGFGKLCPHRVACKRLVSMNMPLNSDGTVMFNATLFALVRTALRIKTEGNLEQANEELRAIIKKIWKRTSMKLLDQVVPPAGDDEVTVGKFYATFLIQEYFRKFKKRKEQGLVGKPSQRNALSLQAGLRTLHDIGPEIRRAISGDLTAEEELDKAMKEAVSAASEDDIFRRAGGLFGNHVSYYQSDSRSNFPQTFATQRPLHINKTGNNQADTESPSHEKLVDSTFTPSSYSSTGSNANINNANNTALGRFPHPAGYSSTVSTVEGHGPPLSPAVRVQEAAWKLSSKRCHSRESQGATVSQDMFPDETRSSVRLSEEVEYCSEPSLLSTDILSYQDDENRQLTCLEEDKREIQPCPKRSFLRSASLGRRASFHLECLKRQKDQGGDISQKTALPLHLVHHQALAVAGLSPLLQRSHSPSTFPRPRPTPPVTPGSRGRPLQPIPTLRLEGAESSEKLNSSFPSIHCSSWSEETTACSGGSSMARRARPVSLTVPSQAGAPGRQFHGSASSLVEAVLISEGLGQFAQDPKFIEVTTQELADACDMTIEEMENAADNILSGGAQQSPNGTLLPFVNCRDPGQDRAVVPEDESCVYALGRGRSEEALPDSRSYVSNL
T1 sequence (P54290 25-945 partner limits assumed, other chains not shown): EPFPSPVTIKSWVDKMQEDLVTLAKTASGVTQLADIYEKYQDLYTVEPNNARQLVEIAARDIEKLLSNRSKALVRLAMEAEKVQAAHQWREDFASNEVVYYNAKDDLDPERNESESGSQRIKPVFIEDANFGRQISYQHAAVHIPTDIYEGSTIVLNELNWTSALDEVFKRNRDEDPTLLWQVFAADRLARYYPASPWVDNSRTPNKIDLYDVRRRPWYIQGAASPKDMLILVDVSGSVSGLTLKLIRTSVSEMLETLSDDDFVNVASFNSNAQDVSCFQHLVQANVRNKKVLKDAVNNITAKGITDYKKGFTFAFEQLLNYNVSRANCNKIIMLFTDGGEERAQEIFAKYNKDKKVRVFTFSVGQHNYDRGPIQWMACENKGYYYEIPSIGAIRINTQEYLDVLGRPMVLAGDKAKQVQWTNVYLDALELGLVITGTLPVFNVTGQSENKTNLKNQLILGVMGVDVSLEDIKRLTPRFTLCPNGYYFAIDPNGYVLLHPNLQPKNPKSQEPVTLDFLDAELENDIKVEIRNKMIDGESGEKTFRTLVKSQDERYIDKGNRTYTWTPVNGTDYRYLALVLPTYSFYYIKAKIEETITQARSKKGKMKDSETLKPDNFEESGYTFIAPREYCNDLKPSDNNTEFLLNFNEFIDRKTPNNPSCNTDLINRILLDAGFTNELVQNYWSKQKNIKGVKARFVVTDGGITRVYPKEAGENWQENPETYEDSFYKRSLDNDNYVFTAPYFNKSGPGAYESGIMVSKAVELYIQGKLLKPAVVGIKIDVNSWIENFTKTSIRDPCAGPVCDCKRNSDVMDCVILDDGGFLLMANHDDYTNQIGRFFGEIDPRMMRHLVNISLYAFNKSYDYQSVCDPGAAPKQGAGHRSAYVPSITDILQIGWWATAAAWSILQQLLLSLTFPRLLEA
T1 sequence (P54290 946-1091 partner limits assumed, other chains not shown): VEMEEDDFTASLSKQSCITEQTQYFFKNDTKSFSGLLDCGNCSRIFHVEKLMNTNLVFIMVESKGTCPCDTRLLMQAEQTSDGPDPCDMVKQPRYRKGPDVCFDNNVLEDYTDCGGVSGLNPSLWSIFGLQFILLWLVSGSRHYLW
Experimental: The compounds of the present invention are also useful as calcium ion antagonists which are useful to control cardiovascular activities, including potential antihypertensive activity. Calcium ion antagonism is measured in the nitrendipine binding assay.
The nitrendipine binding assay is carried out in the following manner. The reagents employed are (1) 0.5 M tris Buffer, pH 7.4, prepared by combining 66.1 g of Tris HCl, 9.7 g of Tris base in 1 liter of distilled water and thereafter making a 1:10 dilution in distilled water; (2) [5-methyl-^3H]-Nitrendipine (70-81 Ci/mmol, obtained from New England Nuclear; and (3) Nifedipine. Tissue is prepared as follows. Male Wistar rats are killed by decapitation, hearts are removed and the ventricles are dissected away from the aorta and aortic tissue. The ventricles are rinsed and homogenized in 19 volumes of ice-cold 0.05 M Tris buffer, pH 7.4 using a Tekmar homogenizer. The homogenate is filtered through four layers of cheese cloth and centrifuged at 1,000 g for 10 minutes. The supernatant is decanted and recentrifuged at 48,000 g for 20 minutes. The resulting pellet is resuspended in the original volume of Tris buffer and recentrifuged at 48,000 g for 20 minutes. These resuspension and recentrifugation steps are repeated twice more to wash the ventricle membranes. The final pellet is resuspended in the original volume of 0.05 M Tris buffer. The assay itself employs 500 ul of ventricle membrane suspension; 50 ul of 0.5 M Tris buffer, pH 7.4; […] [^3 H]-nitrendipine; 20 μl of candidate drug; 380 μl of water in a test tube and is carried out in a darkened room. The test tubes are incubated for one hour at 25° C. […] The filters are washed three times with 5 ml of ice-cold 0.05 M Tris buffer, pH 7.4 and counted in 10 ml of Liquiscint scintillation cocktail. Specific binding is determined by the difference of total binding and binding in the presence of 0.1 μM nifedipine and is roughly 70-75% of the total binding. […] IC50 values for the competing drug are calculated by log-probit analysis of the data.

| Structure (SMILES) | Inhibition in Writhing (%) ([1]; 20 mg/kg of body weight) | Increase in [3H]-nitrendipine binding (%) at 20 µM [2] [%] | Inhibition in Writhing (%) ([1]; 15.1 mg/kg of body weight) | Increase in [3H]-nitrendipine binding (%) at 10 µM ([2]; concentration 1.0 (moles) × 10^-5, standard) [%] |
| --- | --- | --- | --- | --- |
| CON1C(=O)N(CCN(C)C)c2ccccc2CC1c1ccccc1 (racemic) [(±) -1-[2-(N,N-dimethylamino)ethyl]-3-methoxy-4-phenyl-1,3,4,5-tetrahydro-2H-1,3-benzodiazepine-2-one] | 37 | 27.6 | – | – |
| CON1C(=O)N(CCCN(C)C)c2ccccc2CC1c1ccccc1 (racemic) [(±) -1-[3-(N,N-Dimethylamino)propyl]-3-methoxy-4-phenyl-1,3,4,5-tetrahydro-2H-1,3-benzodiazepine-2-one] | 37 | 25.7 | – | – |
| CN1CC[C@@]23CCCC[C@@H]2[C@@H]1Cc1ccc(O)cc13 [dextrorphan, reference compound] | – | – | 50 | – |
| COc1ccc([C@@H]2Sc3ccccc3N(CCN(C)C)C(=O)[C@@H]2OC(C)=O)cc1 [diltiazem, reference compound] | – | – | – | 85 |

Source: patent US4908360A, “1-aminoalkyl-3-oxysubstituted-4-aryl-1,3,4,5-tetr ahydro-2H-1,3-benzodiazepine-2-ones” (Hoechst-Roussel Pharmaceuticals Inc., priority 1988, dated 1990)
